Test results as given in a melting point compilation (Tetko et al.).

First: O=C(O)c1ccc(CO)o1
Second: O=C(O)c1ccc(-c2cccs2)o1
The melting point of the first is lower: 164 to 166 °C for the first, 169 to 171 °C for the second.

Compared with CC(C)Cn1c(=O)[nH]c(=O)c2c(S)nc(CC3CC4CCC3C4)nc21 (configuration not stated), O=C(O)CCn1cnc2sc3c(c2c1=O)CCCC3 is lower in melting point: 311 to 313 °C for the first, 193 to 195 °C for the second.

First: Nc1ccc2c[nH]nc2c1
Second: Nc1ccc(S)c(Cl)c1
The melting point of the first is higher: 204 to 206 °C for the first, 78 to 80 °C for the second.

First: CC(C)c1ccc(C=O)cc1[N+](=O)[O-]
Second: CC(C)S(=O)(=O)c1ccc(CCl)cc1
The melting point of the first is lower: 50 to 52 °C for the first, 69 to 71 °C for the second.

First: O=C(O)C1CCN(S(=O)(=O)c2ccc(Br)s2)CC1
Second: Nc1nc2ccc(S(=O)(=O)N3CCCC3)cc2s1
The melting point of the first is lower: 166 to 168 °C for the first, 225 to 227 °C for the second.

First: COc1ccc(C(N)C(=O)O)cc1OC (configuration not stated)
Second: CC(=O)Oc1ccc(C)cc1C(=O)O
The melting point of the first is higher: 218 to 220 °C for the first, 154 to 156 °C for the second.

Compared with Nc1cccc(OCCF)c1, CC(Oc1cccc(CO)c1)C(=O)O (configuration not stated) is higher in melting point: 33 to 35 °C for the first, 95 to 97 °C for the second.

First: CC1CCc2sc(C(=O)NN)cc2C1 (configuration not stated)
Second: Cc1cccnc1C(=O)NN
The melting point of the first is higher: 122 to 124 °C for the first, 76 to 78 °C for the second.

First: O=C(O)c1cc(NS(=O)(=O)c2cc([N+](=O)[O-])ccc2Cl)ccc1O
Second: CC(C)n1cccc1C(=O)Nc1cc(Cl)ccc1C(=O)O
The melting point of the first is lower: 43 to 45 °C for the first, 226 to 228 °C for the second.

Compared with O=C(O)c1ccncc1N1CCOCC1, O=C(O)C1CCCCC1C(=O)N1CCc2ccccc21 (configuration not stated) is lower in melting point: 201 to 203 °C for the first, 123 to 125 °C for the second.

First: O=C(O)c1ccc(I)c(F)c1
Second: Cc1cc(COc2ccc(C(=O)O)cc2Br)no1
The melting point of the first is higher: 233 to 235 °C for the first, 200 to 202 °C for the second.

First: CC(C)COc1ccc(C(C)(C)C(=O)O)cc1
Second: CC(C)Oc1ccc(CNC(=O)CCl)cc1
The melting point of the first is higher: 107 to 109 °C for the first, 63 to 65 °C for the second.

Compared with O=C(O)/C=C/c1cc(Cl)ccc1Cl, O=C(O)C=Cc1ccc(SC(F)(F)F)cc1 is higher in melting point: 192 to 194 °C for the first, 212 to 214 °C for the second.

First: Cc1ccccc1NC(=O)C1CCc2ccccc2N1 (configuration not stated)
Second: Nc1ccccc1Cc1ccccc1
The melting point of the first is higher: 115 to 117 °C for the first, 55 to 57 °C for the second.

Compared with COc1ccccc1NC(=O)c1ccc(NC(=O)CCCl)cc1, O=C(O)c1ccccc1NCc1cccnc1 is lower in melting point: 193 to 195 °C for the first, 189 to 191 °C for the second.

First: O=C(O)C1CCCCS1(=O)=O (configuration not stated)
Second: O=C(O)C1C2CCCC21 (configuration not stated)
The melting point of the first is higher: 166 to 168 °C for the first, 34 to 36 °C for the second.

First: CCCC=C(C#N)C(=O)O
Second: CCC(CC)n1ccc(C(=O)O)n1
The melting point of the first is higher: 96 to 98 °C for the first, 68 to 70 °C for the second.

First: Nc1ccc(-c2nnco2)cc1
Second: Nc1nnc(-c2cccc(Cl)c2)[nH]1
The melting point of the first is lower: 155 to 157 °C for the first, 219 to 221 °C for the second.

First: O=C(c1ccc(Br)cc1)C1CCOCC1
Second: O=C(O)c1cccc(-c2noc(C3CC3)n2)c1
The melting point of the first is lower: 99 to 101 °C for the first, 158 to 160 °C for the second.

Compared with COc1ccc(CNC(=O)OC(C)(C)C)c(OC)c1, COc1ccc(S(=O)(=O)NC(C)(C)C)cc1N is higher in melting point: 59 to 61 °C for the first, 119 to 121 °C for the second.

First: N#CCc1ncc(C(F)(F)F)cc1Cl
Second: O=C(O)C(NCC(F)(F)F)c1cc(Br)cs1 (configuration not stated)
The melting point of the first is lower: 34 to 36 °C for the first, 178 to 180 °C for the second.

First: CN1CCN(CCOc2ccc(N)cc2)CC1
Second: CC(C)(C)OC(=O)NCCNS(=O)(=O)c1ccc(N)cc1
The melting point of the first is lower: 63 to 65 °C for the first, 130 to 132 °C for the second.

First: Nc1ccc2c(C(=O)O)c[nH]c2c1
Second: Cc1cc(F)cc2c(=O)c(C(=O)O)c[nH]c12
The melting point of the first is lower: 193 to 195 °C for the first, 289 to 291 °C for the second.

First: CC(=O)c1cccc(N2C(=O)C=CC2=O)c1
Second: O=C(O)c1cccc(CN2C(=O)c3ccccc3C2=O)c1
The melting point of the first is lower: 104 to 106 °C for the first, 202 to 212 °C for the second.

First: Nn1ccccc1=O
Second: NCc1cc(=O)n2ccccc2n1
The melting point of the first is lower: 41 to 43 °C for the first, 123 to 125 °C for the second.

First: CS(=O)c1c(N)cccc1Cl (configuration not stated)
Second: NC(=O)c1cc(Br)ccc1N
The melting point of the first is lower: 107 to 109 °C for the first, 183 to 185 °C for the second.

Compared with Clc1cc2ccccc2c(Cl)n1, COC(=O)c1nnc2ccccc2c1Cl is higher in melting point: 100 to 102 °C for the first, 147 to 149 °C for the second.

First: OCc1ccc(Cc2ccccc2)cc1
Second: Oc1ccc(/C=C/c2ccc3ccccc3n2)cc1
The melting point of the first is lower: 37 to 39 °C for the first, 289 to 291 °C for the second.

Compared with Cc1ccc(-n2nc(Br)cc2C(=O)O)cc1, CCOc1cc(C(=O)O)cc(Br)c1OC is lower in melting point: 219 to 221 °C for the first, 182 to 184 °C for the second.

Compared with CC(C)(Cc1cccc(Cl)c1)C(=O)O, O=C(O)C1(O)CCN(Cc2ccccc2)C1 (configuration not stated) is higher in melting point: 56 to 58 °C for the first, 173 to 175 °C for the second.

First: Cc1cc(Cl)nc(-c2cccc([N+](=O)[O-])c2)n1
Second: Cc1ccccc1-c1nn[nH]n1
The melting point of the first is lower: 147 to 149 °C for the first, 153 to 155 °C for the second.

Compared with COc1cc(C=O)ccc1OCc1c(C)cc(C(C)(C)C)cc1C, Cc1cc(C)c2c(c1)NCCC2 is lower in melting point: 139 to 141 °C for the first, 34 to 36 °C for the second.

Compared with CC(=O)c1c[nH]c(C(=O)N2CCCC(CO)C2)c1 (configuration not stated), COC(=O)c1c(O)cc(=O)n2c1CCCCC2 is higher in melting point: 146 to 148 °C for the first, 222 to 224 °C for the second.

Nc1cc(CCc2ccco2)no1 and Cc1ccccc1CCNC(=O)CCl cannot be ordered by melting point: 67 to 69 °C for the first, 68 to 70 °C for the second.

First: Clc1ccc(C(Cl)c2ccc(Cl)cc2)cc1
Second: CCN(C1CC1)S(=O)(=O)c1c(C)n[nH]c1C
The melting point of the first is lower: 57 to 59 °C for the first, 97 to 99 °C for the second.

Compared with COc1sc(C=O)cc1Br, CC(C)(C)C1(C)OC(=O)CC(=O)O1 is lower in melting point: 115 to 117 °C for the first, 72 to 74 °C for the second.
